Experimental data as given in patent EP4585588A1, “BENZIMIDAZOLE COMPOUND, AND PREPARATION METHOD THEREFOR AND USE THEREOF” (Suzhou Pharmavan Co., Ltd., priority 2022, dated 2024).

Tested on: myosin heavy chain β (β-MHC)
Details: 48 h, 10 µM
Description: Primary cardiomyocytes of suckling rats were isolated and cultured and inoculated on a cell culture plate. A drug stock solution was taken and separately added to cell wells according to a certain dilution ratio, and a final concentration was 10 µM. After half hour of drug action, a phenylephrine (PE) stock solution was added, and a final concentration of PE was 20 µM. After 48 hours of PE action, cell samples were collected for real-time quantitative PCR assay or cell area measurement.
Separation and plating of cardiomyocytes of rats: a certain number of SPF suckling rats were taken and placed in a clean bench according to an actual requirement for the number of cells, thoracic cavities were opened by scissors, hearts were separated, and the hearts were cut into tissue fragments with sterilized surgical scissors; Collagenase Type II (manufacturer: Sigma, article No.: C2-28-100MG) was added to a D-HANKS balanced salt buffer to prepare a 5 µg/mL enzyme digestion solution, and the tissue fragments of hearts were continuously digested for three times in a 37 °C constant-temperature water bath box; about 2 mL of the enzyme digestion solution was added for the first time, a supernatant was discarded after digestion, centrifugation and precipitation of cardiomyocytes and tissue fragments, about 4 mL of the enzyme digestion solution was independently added for the second time and the third time to continue digestion, a supernatant was remained each time, DMEM containing 10% FBS with the same volume as the digestion solution in the supernatant was immediately added to neutralize digestive enzymes, the supernatants for the second time and the third time were combined and centrifuged, a supernatant was discarded, an appropriate amount of DMEM containing 10% FBS was added to resuspend the cardiomyocytes, the cardiomyocytes were inoculated in a 100 mm culture plate and subjected to differential adhesion in a constant-temperature cell incubator for 2 h, and a supernatant was taken for cell count.
A 24-well plate precoated with 1% gelatin was taken and plated at 1×10^5 cells/well, 500 µL of a 10% FBS+DMEM medium was contained in each well, and cells were cultured in a 37 °C constant-temperature cell incubator for 24 h. Different compounds were independently prepared into a 100 mM mother liquor with DMSO and gradient diluted with a 10% FBS+DMEM medium to prepare a 10 µM final solution of the compound containing 0.5% DMSO. The medium in the 24-well plate was discarded and replaced with a 500 µL/well medium containing a 10 µM compound, and three replicate wells and a negative control well were set for each compound. After 0.5 hours of drug action, PE (manufacturer: Meilun Biotechnology; article No.: MB1602) with a final concentration of 20 µM was added to each well, and no PE was added to the negative control wells; after 48 hours of PE action, sample detection was performed.
Expression levels of genes related to cardiomyocyte hypertrophy was analyzed via real-time quantitative PCR detection of mRNA level of atrial natriuretic peptide (ANP) and myosin heavy chain β (β-MHC). The steps include extraction of total RNA of cells, reverse transcription synthesis of cDNA and real-time quantitative PCR assay.
Based on real-time quantitative PCR detection of an mRNA level of ANP of cardiomyocytes, a drug with a potential of anti-cardiomyocyte hypertrophy was preliminarily screened and verified with an mRNA level of another hypertrophy gene β-MHC using a statistical method One-way ANOVA and statistical software GraphPad Prism.

First: Cc1nc2cc(-c3cc(C(=O)N(C)C)cc(C#N)c3C(C)O)ccc2[nH]1 (stereo not drawn) [Formula II-57, 3-cyano-4-(1-hydroxyethyl)-N,N-dimethyl-5-(2-methyl-1H-benzimidazol-5-yl)benzamide]
Second: Cc1nc2cc(-c3cc(C(N)=O)cc(C#N)c3C(C)O)ccc2[nH]1 (stereo not drawn) [Formula II-54, 3-cyano-4-(1-hydroxyethyl)-5-(2-methyl-1H-benzimidazol-5-yl)benzamide]
The “Mean (real-time quantitative PCR validation results of cardiomyocyte β-MHC)” value (“Mean” below) of the first is lower: 1.26 for the first, 1.28 for the second.

Compared with `CN(C)C(=O)c1cc(C#N)c(CO)c(-c2ccc3[nH]cnc3c2)c1` [Formula II-129, 3-cyano-4-(hydroxymethyl)-N,N-dimethyl-5-(1H-benzimidazol-5-yl)benzamide], `CN(C)C(=O)c1cc(F)c(CO)c(-c2ccc3[nH]cnc3c2)c1` [Formula II-128, 3-fluoro-4-(hydroxymethyl)-N,N-dimethyl-5-(1H-benzimidazol-5-yl)benzamide] is lower in “Mean” value: 1.34 for the first, 1.27 for the second.

First: NC(=O)c1ccc(O)c(-c2ccc3[nH]cnc3c2)c1 [Formula I-27, 4-hydroxy-3-(1H-benzimidazol-5-yl)benzamide]
Second: O=C(O)c1ccc(O)c(-c2ccc3[nH]cnc3c2)c1 [Formula I-33, 4-hydroxy-3-(1H-benzimidazol-5-yl)benzoic acid]
The “Mean” value of the first is higher: 1.27 for the first, 1.22 for the second.

First: CC(C)(O)c1ccc(CC#N)cc1-c1ccc2[nH]cnc2c1 [Formula II-43, 2-(4-(2-hydroxypropan-2-yl)-3-(1H-benzimidazol-5-yl)phenyl)acetonitrile]
Second: CC(O)c1ccc(CC#N)cc1-c1ccc2[nH]cnc2c1 (stereo not drawn) [Formula II-91, 2-(4-(1-hydroxyethyl)-3-(1H-benzimidazol-5-yl)phenyl)acetonitrile]
The “Mean” value of the first is lower: 1.21 for the first, 1.57 for the second.

Going from `CCCc1ccc(O)c(-c2ccc3[nH]cnc3c2)c1` [Formula I-45, 2-(1H-benzimidazol-5-yl)-4-propylphenol] to `CCCc1ccc(CO)c(-c2ccc3[nH]cnc3c2)c1` [Formula II-142, (2-(1H-benzimidazol-5-yl)-4-propylphenyl)methanol], the “Mean” value rises from 1.39 to 1.40.

Going from `CCCc1cc(F)c(C(C)O)c(-c2ccc3[nH]cnc3c2)c1` (stereo not drawn) [Formula II-95, 1-(2-fluoro-6-(1H-benzimidazol-5-yl)-4-propylphenyl)ethane-1-ol] to `C=CCc1cc(C#N)c(C(C)O)c(-c2ccc3[nH]cnc3c2)c1` (stereo not drawn) [Formula II-90, 5-allyl-2-(1-hydroxyethyl)-3-(1H-benzimidazol-5-yl)benzonitrile], the “Mean” value rises from 1.24 to 1.27.

First: COC(=O)c1cc(F)c(CO)c(-c2ccc3[nH]c(C)nc3c2)c1 [Formula II-110, methyl 3-fluoro-4-(hydroxymethyl)-5-(2-methyl-1H-benzimidazol-5-yl) benzoate]
Second: Cc1nc2cc(-c3cc(C(=O)N(C)C)cc(F)c3CO)ccc2[nH]1 [Formula II-104, 3-fluoro-4-(hydroxymethyl)-N,N-dimethyl-5-(2-methyl-1H-benzimidazol-5-yl)benzamide]
The “Mean” value of the first is higher: 1.34 for the first, 1.25 for the second.

Compared with `CC(C)(O)c1ccc(F)cc1-c1ccc2[nH]cnc2c1` [Formula II-25, 2-(4-fluoro-2-(1H-benzimidazol-5-yl)phenyl)propane-2-ol], `CC(C)(O)c1c(F)cc(F)cc1-c1ccc2[nH]cnc2c1` [Formula II-26, 2-(2,4-difluoro-6-(1H-benzimidazol-5-yl)phenyl)propane-2-ol] is lower in “Mean” value: 1.52 for the first, 1.42 for the second.

Compared with `Cc1nc2cc(-c3cc(C(N)=O)cc(C#N)c3CO)ccc2[nH]1` [Formula II-102, 3-cyano-4-(hydroxymethyl)-5-(2-methyl-1H-benzimidazol-5-yl)benzamide], `CCCc1cc(C#N)c(CO)c(-c2ccc3[nH]c(C)nc3c2)c1` [Formula II-120, 2-(hydroxymethyl)-3-(2-methyl-1H-benzimidazol-5-yl)-5-propylbenzonitrile] is higher in “Mean” value: 1.28 for the first, 1.45 for the second.

Compared with `Cc1nc2cc(-c3cc(CC#N)cc(F)c3CO)ccc2[nH]1` [Formula II-116, 2-(3-fluoro-4-(hydroxymethyl)-5-(2-methyl-1H-benzimidazol-5-yl)phenyl)acetonitrile], `Cc1nc2cc(-c3cc(CC#N)cc(F)c3O)ccc2[nH]1` [Formula I-19, 2-(3-fluoro-4-hydroxy-5-(2-methyl-1H-benzimidazol-5-yl)phenyl)acetonitrile] is lower in “Mean” value: 1.58 for the first, 1.26 for the second.

First: C=CCc1cc(F)c(O)c(-c2ccc3[nH]cnc3c2)c1 [Formula I-40, 4-allyl-2-(1H-benzimidazol-5-yl)-6-fluorophenol]
Second: C=CCc1cc(C#N)c(O)c(-c2ccc3[nH]cnc3c2)c1 [Formula I-41, 5-allyl-3-(1H-benzimidazol-5-yl)-2-hydroxybenzonitrile]
The “Mean” value of the first is lower: 1.28 for the first, 1.37 for the second.

Going from `C=CCc1cc(C#N)c(C(C)(C)O)c(-c2ccc3[nH]cnc3c2)c1` [Formula II-42, 5-allyl-2-(2-hydroxypropan-2-yl)-3-(1H-benzimidazol-5-yl)benzonitrile] to `C=CCc1cc(C#N)c(C(C)(C)O)c(-c2ccc3[nH]c(C)nc3c2)c1` [Formula II-18, 5-allyl-2-(2-hydroxypropan-2-yl)-3-(2-methyl-1H-benzimidazol-5-yl)benzonitrile], the “Mean” value falls from 1.48 to 1.19.

Compared with `CC(O)c1c(C#N)cc(C(N)=O)cc1-c1ccc2[nH]cnc2c1` (stereo not drawn) [Formula II-78, 3-cyano-4-(1-hydroxyethyl)-5-(1H-benzimidazol-5-yl)benzamide], `CC(C)(O)c1c(C#N)cc(C(N)=O)cc1-c1ccc2[nH]cnc2c1` [Formula II-30, 3-cyano-4-(2-hydroxypropan-2-yl)-5-(1H-benzimidazol-5-yl)benzamide] is lower in “Mean” value: 1.35 for the first, 1.21 for the second.

Going from `CN(C)C(=O)c1cc(F)c(O)c(-c2ccc3[nH]cnc3c2)c1` [Formula I-31, 3-fluoro-4-hydroxy-N,N-dimethyl-5-(1H-benzimidazol-5-yl)benzamide] to `NC(=O)c1cc(F)c(O)c(-c2ccc3[nH]cnc3c2)c1` [Formula I-28, 3-fluoro-4-hydroxy-5-(1H-benzimidazol-5-yl)benzamide], the “Mean” value falls from 1.29 to 1.07.

Going from `CC(C)(O)c1c(C#N)cc(C(=O)O)cc1-c1ccc2[nH]cnc2c1` [Formula II-36, 3-cyano-4-(2-hydroxypropan-2-yl)-5-(1H-benzimidazol-5-yl)benzoic acid] to `COC(=O)c1cc(C#N)c(O)c(-c2ccc3[nH]cnc3c2)c1` [Formula I-38, methyl 3-cyano-4-hydroxy-5-(1H-benzimidazol-5-yl) benzoate], the “Mean” value falls from 1.41 to 1.26.

Compared with `COC(=O)c1ccc(O)c(-c2ccc3[nH]c(C)nc3c2)c1` [Formula I-12, methyl 4-hydroxy-3-(2-methyl-1H-benzimidazol-5-yl) benzoate], `CCCc1ccc(O)c(-c2ccc3[nH]c(C)nc3c2)c1` [Formula I-21, 2-(2-methyl-1H-benzimidazol-5-yl)-4-propylphenol] is lower in “Mean” value: 1.19 for the first, 1.05 for the second.

Going from `Cc1nc2cc(-c3cc(CC#N)ccc3O)ccc2[nH]1` [Formula I-18, 2-(4-hydroxy-3-(2-methyl-1H-benzimidazol-5-yl)phenyl)acetonitrile] to `C=CCc1ccc(C(C)O)c(-c2ccc3[nH]c(C)nc3c2)c1` (stereo not drawn) [Formula II-64, 1-(4-allyl-2-(2-methyl-1H-benzimidazol-5-yl)phenyl)ethane-1-ol], the “Mean” value rises from 1.18 to 1.22.

First: C=CCc1cc(F)c(C(C)(C)O)c(-c2ccc3[nH]c(C)nc3c2)c1 [Formula II-17, 2-(4-allyl-2-fluoro-6-(2-methyl-1H-benzimidazol-5-yl)phenyl)propane-2-ol]
Second: Cc1nc2cc(-c3cc(C(=O)N(C)C)cc(C#N)c3C(C)(C)O)ccc2[nH]1 [Formula II-9, 3-cyano-4-(2-hydroxypropan-2-yl)-N,N-dimethyl-5-(2-methyl-1H-benzimidazol-5-yl)benzamide]
The “Mean” value of the first is lower: 1.13 for the first, 1.18 for the second.

First: Cc1nc2cc(-c3cc(C(=O)O)ccc3C(C)(C)O)ccc2[nH]1 [Formula II-10, 4-(2-hydroxypropan-2-yl)-3-(2-methyl-1H-benzimidazol-5-yl)benzoic acid]
Second: Cc1nc2cc(-c3cc(C(=O)O)cc(F)c3O)ccc2[nH]1 [Formula I-10, 3-fluoro-4-hydroxy-5-(2-methyl-1H-benzimidazol-5-yl)benzoic acid]
The “Mean” value of the first is higher: 1.27 for the first, 1.14 for the second.

Compared with `CC(O)c1ccc(C(=O)O)cc1-c1ccc2[nH]cnc2c1` (stereo not drawn) [Formula II-82, 4-(1-hydroxyethyl)-3-(1H-benzimidazol-5-yl)benzoic acid], `COC(=O)c1ccc(CO)c(-c2ccc3[nH]cnc3c2)c1` [Formula II-133, methyl 4-(hydroxymethyl)-3-(1H-benzimidazol-5-yl) benzoate] is higher in “Mean” value: 1.15 for the first, 1.46 for the second.

`Cc1nc2cc(-c3cc(F)ccc3C(C)O)ccc2[nH]1` (stereo not drawn) [Formula II-49, 1-(4-fluoro-2-(2-methyl-1H-benzimidazol-5-yl)phenyl)ethane-1-ol] and `COC(=O)c1cc(C#N)c(C(C)O)c(-c2ccc3[nH]c(C)nc3c2)c1` (stereo not drawn) [Formula II-63, methyl 3-cyano-4-(1-hydroxyethyl)-5-(2-methyl-1H-benzimidazol-5-yl) benzoate] are the same in “Mean” value: 1.36 for the first, 1.36 for the second.
